Laboratory results: publication PMC10133546, “Simultaneous determination of multiple components in rat plasma by UHPLC-sMRM for pharmacokinetic studies after oral administration of Qingjin Yiqi Granules” (Frontiers in Pharmacology, 2023)
Read-outs that look alike come from different tables or passages of the source. One block for each compound: values may come before it.

Columns and labels:
[1] = Pharmacokinetic study in rat plasma after oral administration of QJYQ (UHPLC-sMRM); format: in vivo, Sprague-Dawley rats
Description: Exion LC AD tandem Blueline 3500 triple quadrupole mass spectrometer (AB SCIEX, Framingham, MA, United States) was used to thirty-three compounds in rat plasma. […] The whole detailed parameters of sMRM were obtained in Supplementary Table S1.
Rat plasma (100 μL) was mixed with 10% formic acid (10 μL) and vortexed for 1 min at room temperature. ISs (10 μL) and methanol/acetonitrile (1/1, v/v) (400 μL) were added and vortexed for 5 min, then centrifuged for 10 min at 14,000 rpm and 4°C. The transported supernatant was condensed to dryness under the flow of nitrogen gas. The dried residue was reconstituted with 70% methanol (100 μL) by vortex-mixing for 5 min and centrifuging at 14,000 rpm for 10 min. Last, 2 μL of the solution were injected into the UHPLC-sMRM system.
The pharmacokinetic study was approved by the Animal Ethics Committee of Tianjin University of Traditional Chinese Medicine (TCM-LAEC2021228). Ten male Sprague-Dawley rats (weight 220–240 g) was kept at the animal center of Tianjin University of Traditional Chinese Medicine (Tianjin, China). […] The sample was transferred right away following a 10 min period of centrifugation at 7000 rpm and 4°C. All plasma samples were frozen and stored at −80°C.
All the pharmacokinetic parameters were calculated using the DAS 1.0 software (Drug and Statistics 1.0, Medical College of Wannan, China). Pharmacokinetic parameters include the maximum drug concentration in plasma (Cmax), the time to achieve maximum drug concentration (Tmax), the area under the plasma concentration-time curve (AUC), elimination half-life (T1/2), and mean residence time (MRT). The pharmacokinetic parameters were computed using the non-compartmental model. All data are expressed as mean ± standard deviation (SD). GraphPad Prism 8.0 (GraphPad Software Inc., La Jolla, CA, United States) software was used to draw the drug-time curve.

[2] = Stability of the working solution (4°C for 1 month); format: physicochemical
[3] = Stability of analytes in rat plasma (auto-sampler, freeze-thaw, room temperature, long-term); conditions: for Autosampler for 24 h Accuracy (%): autosampler 24 h; for Room temperature for 24 h Accuracy (%): room temperature 24 h; for Freeze thaw cycles Accuracy (%): three freeze-thaw cycles
Description: The stability of analytes in plasma was evaluated by analyzing 4 QC samples (n = 6). The stability was included auto-sampler stability (keeping the sample in auto-sampler for 24 h), three times of freeze-thaw cycles stability (freezing cycle at −80°C, thawing cycle at room temperature), room temperature stability (storing samples at room temperature for 24 h), long-term stability (storing samples at −80°C for 1 month). […] Accompanying curve was established when testing the sample, calculate and compare the ratio of the actual measured concentration to the theoretical concentration, expressed in accuracy and RSD.

[4] = male, Sprague-Dawley, rat, plasma, po, 3.15 g/kg, rat plasma, oral QJYQ 3.15 g/kg, n = 8, mean ± SD, read-out: Tmax
[5] = male, Sprague-Dawley, rat plasma, oral QJYQ 3.15 g/kg, n = 8, mean ± SD
[6] = male, Sprague-Dawley, rat plasma, oral QJYQ 3.15 g/kg, n = 8, mean ± SD, read-out: AUC(0-t)
[7] = male, Sprague-Dawley, rat plasma, oral QJYQ 3.15 g/kg, n = 8, mean ± SD, read-out: AUC(0-∞)
[8] = male, Sprague-Dawley, rat plasma, oral QJYQ 3.15 g/kg, n = 8, mean ± SD, read-out: MRT (0-∞)
[9] = male, Sprague-Dawley, rat plasma, oral QJYQ 3.15 g/kg, n = 8, mean ± SD, read-out: MRT(0-t)
[10] = rat plasma, oral QJYQ 3.15 g/kg, n = 8, mean ± SD
[11] = male, Sprague-Dawley, rat, in vivo, po, 3.15 g/kg

- Tmax [1, 4]: 6.29 ± 0.76 h
- MRT ([1]; male, Sprague-Dawley, rat plasma, oral QJYQ 3.15 g/kg, MRT type not specified, read-out: MRT): > 8 h
- half-life [1, 5]: 1.91 ± 0.09 h
- AUC(0-t) [1, 6]: 288 ± 66.1 ng·h/mL
- AUC(0-inf) [1, 7]: 288 ± 66.1 ng·h/mL
- MRT inf [1, 8]: 8.27 ± 1.09 h
- MRT last [1, 9]: 8.27 ± 1.09 h
- Cmax [1, 10]: 38.13 ± 10.55 ng/mL
- Working solution Accuracy (%) ([2]; concentration 1.56 ng/mL): 98.0%
- Working solution Accuracy (%) ([2]; concentration 12.5 ng/mL): 98.9%
- Working solution Accuracy (%) ([2]; concentration 100 ng/mL): 85.8%
- Working solution Accuracy (%) ([2]; concentration 500 ng/mL): 100.0%
- Autosampler for 24 h Accuracy (%) ([3]; concentration 1.56 ng/mL): 82.8%
- Autosampler for 24 h Accuracy (%) ([3]; concentration 12.5 ng/mL): 111.0%
- Autosampler for 24 h Accuracy (%) ([3]; concentration 100 ng/mL): 102.0%
- Autosampler for 24 h Accuracy (%) ([3]; concentration 500 ng/mL): 90.5%
- Room temperature for 24 h Accuracy (%) ([3]; concentration 1.56 ng/mL): 98.0%
- Room temperature for 24 h Accuracy (%) ([3]; concentration 12.5 ng/mL): 94.1%
- Room temperature for 24 h Accuracy (%) ([3]; concentration 100 ng/mL): 89.8%
- Room temperature for 24 h Accuracy (%) ([3]; concentration 500 ng/mL): 106.0%
- Freeze thaw cycles Accuracy (%) ([3]; concentration 1.56 ng/mL): 86.4%
- Freeze thaw cycles Accuracy (%) ([3]; concentration 12.5 ng/mL): 89.6%
- Freeze thaw cycles Accuracy (%) ([3]; concentration 500 ng/mL): 91.8%
- −80°C for 1month Accuracy (%) ([3]; −80°C for 1 month, concentration 1.56 ng/mL): 111.0%
- −80°C for 1month Accuracy (%) ([3]; −80°C for 1 month, concentration 12.5 ng/mL): 85.1%
- −80°C for 1month Accuracy (%) ([3]; −80°C for 1 month, concentration 100 ng/mL): 96.0%
- −80°C for 1month Accuracy (%) ([3]; −80°C for 1 month, concentration 500 ng/mL): 87.4%
Compound: COc1c(O)cc(O)c2c(=O)cc(-c3ccccc3)oc12 [wogonin]

Compound: O=C1C[C@@H](c2ccc(O[C@@H]3O[C@H](CO)[C@@H](O)[C@H](O)[C@H]3O)cc2)Oc2cc(O)ccc21 [liquiritin]
- AUC(0-inf) [1, 11]: 16.4 ± 5.06 ng·h/mL
- AUC(0-t) [1, 11]: 16.3 ± 5.11 ng·h/mL
- Cmax [1, 11]: 7.08 ± 2.25 ng/mL
- MRT inf [1, 11]: 6.8 ± 1.19 h
- MRT last [1, 11]: 6.4 ± 0.98 h
- Tmax ([1]; male, Sprague-Dawley, rat, in vivo, po, 3.15 g/kg, Tmax): 0.52 ± 0.1 h
- T1/2 [1, 10]: 4.30 ± 3.09 h
- Working solution Accuracy (%) ([2]; 1.56 ng/mL): 99.4%
- Working solution Accuracy (%) ([2]; 12.5 ng/mL): 94.1%
- Working solution Accuracy (%) ([2]; 100 ng/mL): 100.0%
- Working solution Accuracy (%) ([2]; 500 ng/mL): 86.6%
- Autosampler for 24 h Accuracy (%) ([3]; 1.56 ng/mL): 84.0%
- Room temperature for 24 h Accuracy (%) ([3]; 1.56 ng/mL): 111.0%
- Freeze thaw cycles Accuracy (%) ([3]; 1.56 ng/mL): 110.0%
- Autosampler for 24 h Accuracy (%) ([3]; 12.5 ng/mL): 108.0%
- Room temperature for 24 h Accuracy (%) ([3]; 12.5 ng/mL): 94.4%
- −80°C for 1month Accuracy (%) ([3]; 12.5 ng/mL, −80°C 1 month): 94.1%
- Autosampler for 24 h Accuracy (%) ([3]; 100 ng/mL): 94.1%
- Room temperature for 24 h Accuracy (%) ([3]; 100 ng/mL): 90.6%
- Freeze thaw cycles Accuracy (%) ([3]; 100 ng/mL): 85.8%
- −80°C for 1month Accuracy (%) ([3]; 100 ng/mL, −80°C 1 month): 103.0%
- Autosampler for 24 h Accuracy (%) ([3]; 500 ng/mL): 91.2%
- Room temperature for 24 h Accuracy (%) ([3]; 500 ng/mL): 89.3%
- Freeze thaw cycles Accuracy (%) ([3]; 500 ng/mL): 87.0%
- −80°C for 1month Accuracy (%) ([3]; 500 ng/mL, −80°C 1 month): 108.0%

Compound: O=C(O)c1ccc(O)c(O)c1 [protocatechuic acid]
- Tmax [1, 4]: < 0.5 h
- half-life [1, 5]: 2.33 ± 0.52 h
- AUC(0-t) [1, 6]: 40.8 ± 10.9 ng·h/mL
- AUC(0-inf) [1, 7]: 40.9 ± 17.3 ng·h/mL
- Cmax ([1]; male, Sprague-Dawley, rat plasma, oral QJYQ 3.15 g/kg, n = 8, mean ± SD, read-out: Cmax): 6.79 ± 4.35 ng/mL
- MRT inf [1, 8]: 5.32 ± 1.53 h
- MRT last [1, 9]: 5.3 ± 1.02 h
- Working solution Accuracy (%) ([2]; 1.56 ng/mL): 82.3%
- Working solution Accuracy (%) ([2]; 12.5 ng/mL): 104.0%
- Working solution Accuracy (%) ([2]; 100 ng/mL): 92.6%
- Working solution Accuracy (%) ([2]; 500 ng/mL): 88.9%
- Autosampler for 24 h Accuracy (%) ([3]; 1.56 ng/mL): 103.0%
- Room temperature for 24 h Accuracy (%) ([3]; 1.56 ng/mL): 110.0%
- Freeze thaw cycles Accuracy (%) ([3]; 1.56 ng/mL): 103.0%
- −80°C for 1month Accuracy (%) ([3]; 1.56 ng/mL, −80°C 1 month): 80.4%
- Autosampler for 24 h Accuracy (%) ([3]; 12.5 ng/mL): 86.0%
- Room temperature for 24 h Accuracy (%) ([3]; 12.5 ng/mL): 91.0%
- −80°C for 1month Accuracy (%) ([3]; 12.5 ng/mL, −80°C 1 month): 114.0%
- Autosampler for 24 h Accuracy (%) ([3]; 100 ng/mL): 98.5%
- Room temperature for 24 h Accuracy (%) ([3]; 100 ng/mL): 106.0%
- Freeze thaw cycles Accuracy (%) ([3]; 100 ng/mL): 90.0%
- −80°C for 1month Accuracy (%) ([3]; 100 ng/mL, −80°C 1 month): 100.0%
- Autosampler for 24 h Accuracy (%) ([3]; 500 ng/mL): 85.2%
- Room temperature for 24 h Accuracy (%) ([3]; 500 ng/mL): 85.3%
- Freeze thaw cycles Accuracy (%) ([3]; 500 ng/mL): 89.0%
- −80°C for 1month Accuracy (%) ([3]; 500 ng/mL, −80°C 1 month): 91.2%
